Source: patent US5597823A, “Tricyclic substituted hexahydrobenz [e]isoindole alpha-1 adrenergic antagonists” (priority 1995, dated 1997)
Where a name gives a salt, the structure may show the parent alone.

molecular target: T1, α-1A adrenoceptor (dog prostate) (Canis lupus, UniProt A0A8I3NK63); assay: Functional antagonism: phenylephrine (PE)-induced contraction of canine prostate strips; format: cell-based; conditions: Table 2b; vs phenylephrine; Schild plot
T1 sequence (A0A8I3NK63 1-466): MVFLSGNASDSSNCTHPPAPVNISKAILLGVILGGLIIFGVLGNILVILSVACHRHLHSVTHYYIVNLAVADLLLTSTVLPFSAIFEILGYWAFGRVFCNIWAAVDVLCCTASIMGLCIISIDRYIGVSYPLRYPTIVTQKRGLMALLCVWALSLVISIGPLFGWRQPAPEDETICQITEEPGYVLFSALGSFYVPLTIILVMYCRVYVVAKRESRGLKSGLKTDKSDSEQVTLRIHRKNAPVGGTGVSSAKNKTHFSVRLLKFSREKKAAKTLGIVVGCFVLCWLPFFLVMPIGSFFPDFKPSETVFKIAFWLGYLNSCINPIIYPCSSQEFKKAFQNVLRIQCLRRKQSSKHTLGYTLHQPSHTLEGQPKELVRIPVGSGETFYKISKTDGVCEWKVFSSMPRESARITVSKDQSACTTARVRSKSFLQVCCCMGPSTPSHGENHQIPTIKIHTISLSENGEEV
Description: Functional assays indicative of pharmacologically defined α-1 adrenoceptors were used to further characterize compounds. Inhibition of phenylephrine (PE)-induced contraction of canine prostate smooth muscle can be correlated with α-1A adrenoceptor activation. […] For each of these models, agonist dose response curves were repeated against increasing concentrations of test agent to derive a Schild plot [log ([…]) against log (molarity of test agent)] to determine the pA2.
Canine prostate strips were used in vitro as previously described (Hieble, J. P., Boyce, A. J. and Caine, M., Fed. Proc., 45:2609-2614 (1986)), to determine antagonist potencies against phenylephrine-induced contractions.

Which “pA2 Dog Prostate [α-1A]” value does the source give for `COc1cccc2c1CC[C@H]1CN(CCn3c(=O)[nH]c4c(sc5cc([N+](=O)[O-])ccc54)c3=O)C[C@@H]21` [Example 47, 3-[2-((3aR,9bR)-cis-6-Methoxy-2,3,3a.4,5,9b-hexahydro-[1H]-benz[e]isoindol-1-yl)ethyl]-[1]-7-nitro-benzothieno[3,2-d]pyrimidine-2,4(1H,3H)-dione hydrochloride] here?
Its value is 8.7.

`COc1cccc2c1CC[C@H]1CN(CCn3cnc4c(sc5nccnc54)c3=O)C[C@@H]21` [Example 71, 3-[2-(cis-(3.aR,9bR)-6-Methoxy-2,3 .,3a,4,5,9b-hexahydro-[1H]-benz[e]isoindol-1-yl)ethyl]-pyrazino[2',3':4,5]thieno[3,2-d]pyrimidine-4(1H,3H)-one hydrochloride] was tested. Which “pA2 Dog Prostate [α-1A]” value did it give?
The value was 9.21.

Which “pA2 Dog Prostate [α-1A]” value does the source give for `COc1cccc2c1CC[C@H]1CN(CCn3c(=O)[nH]c4c(ccc5cnccc54)c3=O)C[C@@H]21` [Example 84, hydrochloride] here?
The value was 8.99.

Which “pA2 Dog Prostate [α-1A]” value does the source give for `COc1cccc2c1CC[C@H]1CN(CCn3c(=O)[nH]c4c([nH]c5ccncc54)c3=O)C[C@@H]21` [Example 97, hydrochloride] here?
The value was 9.66.

With `COc1cccc2c1[C@@H]1CN(CCn3c(=O)[nH]c4c(sc5ccccc54)c3=O)C[C@H]1CC2` (relative stereo) [Example 2, 3-[2-(trans-9-Methoxy-2,3,3a4,5,9b-hexahydro-[1H]-benz[e]isoindol-1-yl)ethyl]-[1]benzothieno[3,2-d]pyrimidine-2,4(1H,3H)-dione hydrochloride] as the molecule, how does the “pA2 Dog Prostate [α-1A]” value read?
Its value is 7.81.

How did the “pA2 Dog Prostate [α-1A]” value turn out when `COc1cccc2c1CC[C@H]1CN(CCn3c(=O)[nH]c4c(sc5ccc(N(C)C)cc54)c3=O)C[C@@H]21` [Example 50, 3-[2-((3aR,9bR)-cis-6-Methoxy-2,3,3a,4,5,9b-hexahydro-[1H]-benz[e]isoindol-1-yl)ethyl]-[1]-8-N,N-dimethylamino-benzothieno[3,2-d]pyrimidine-2,4(1H,3H)-dione hydrochloride] was run?
Its value is 7.24.

Which “pA2 Dog Prostate [α-1A]” value does the source give for `COc1cccc2c1CC[C@H]1CN(CCn3c(=O)[nH]c4c(sc5ccc(C(N)=O)cc54)c3=O)C[C@@H]21` [Example 46, 3-[2-((3aR,9bR)-cis-6-Methoxy-2,3,3a.4,5,9b-hexahydro-[1H]-benz[e]isoindol-1-yl)ethyl]-[1]-8-carboxamido-benzothieno[3,2-d]pyrimidine-2,4(1H,3H)-dionehydrochloride] here?
Its value is 9.61.

`COc1cccc2c1CC[C@H]1CN(CCn3c(=O)[nH]c4c(oc5ncccc54)c3=O)C[C@@H]21` (relative stereo) [Example 27, 3-[2-(cis-6-Methoxy-2,3,3a,4,5,9b-hexahydro-[1H]-benz[e]isoindol-1-yl)ethyl]-pyrido[3',2':4,5]furo[3,2-d]pyrimidine-2,4(1H,3H)-dione hydrochloride] was tested. Which “pA2 Dog Prostate [α-1A]” value did it give?
Its value is 8.72.

`O=c1[nH]c2c(sc3ccccc32)c(=O)n1CCN1C[C@@H]2CCc3c(O)cccc3[C@@H]2C1` (relative stereo) [Example 20, 3-2-(cis-6-Hydroxy-2,3,3a,4,5,9b-hexahydro-[1H]-benz[e]isoindol-1-yl)ethyl]-[1]benzothieno[3,2-d]pyrimidine-2,4(1H,3H) -dione hydrobromide] was tested. Which “pA2 Dog Prostate [α-1A]” value did it give?
The value was 7.43.

With `COc1cccc2c1CC[C@H]1CN(CCn3c(=O)[nH]c4c(sc5cncnc54)c3=O)C[C@@H]21` [Example 41] as the molecule, how does the “pA2 Dog Prostate [α-1A]” value read?
Its value is 9.03.

For `COCCn1c(=O)n(CCN2C[C@@H]3CCc4c(OC)cccc4[C@@H]3C2)c(=O)c2sc3nccnc3c21` [Example 104, 3-[2-(cis-(3aR,9bR)-6-Methoxy-2,3,3a,4,5,9b-hexahydro-[1H]-benz[e]isoindol-1-yl)ethyl]-1-(2-methoxyethyl)pyrazino[2',3':4,5]thieno[3,2-d]pyrimidine-2,4(1H,3H)-dione hydrochloride], which “pA2 Dog Prostate [α-1A]” value is on record?
The value was 9.74.

`COc1cccc2c1[C@@H]1CN(CCCCn3c(=O)[nH]c4c(sc5nccnc54)c3=O)C[C@@H]1CC2` [Example 80, hydrochloride] was tested. Which “pA2 Dog Prostate [α-1A]” value did it give?
Its value is 8.08.

`COc1cccc2c1CC[C@H]1CN(CCn3c(-c4ccccc4)nc4c(sc5ccccc54)c3=O)C[C@@H]21` (relative stereo) [Example 30, 3-[2-(cis-6-Methoxy-2 3 3a,4,5,9b-hexahydro-[1H]-benz[e]isoindol-1-yl)ethyl]-2-phenyl-[1]benzothieno[3,2-d]-4(1H,3H)-one hydrochloride] was tested. Which “pA2 Dog Prostate [α-1A]” value did it give?
Its value is 7.06.

For `CCOc1cccc2c1CC[C@H]1CN(CCn3c(=O)[nH]c4c(sc5ncccc54)c3=O)C[C@@H]21` [Example 109, hydrochloride], which “pA2 Dog Prostate [α-1A]” value is on record?
Its value is 8.00.

Which “pA2 Dog Prostate [α-1A]” value does the source give for `COc1cccc2c1CC[C@H]1CN(CCn3c(=O)[nH]c4c(oc5cccnc54)c3=O)C[C@@H]21` [Example 77, 3-[2-((3aR,9bR)-cis-6-Methoxy-2,3,3a,4,5,9b-hexahydro-[1H]-benz[e]yl)ethyl]-pyrido[2',3':4,5]furo[3,2-d]pyrimidine-2,4(1H3 H)-dione hydrochloride] here?
Its value is 9.09.

How did the “pA2 Dog Prostate [α-1A]” value turn out when `COc1cccc2c1CC[C@H]1CN(CCn3c(=O)[nH]c4c(sc5cc(C(F)(F)F)ccc54)c3=O)C[C@@H]21` [Example 32, 3-[2-((3aR,9bR)-cis76-Methoxy-2,3,3a,4,5,9b-hexahydro-[1-benz[e]isoindol-1-yl)ethyl]-7-trifluoromethyl[1]benzothieno[23-d]pyrimidine-2,4(1H,3H)-dione hydrochloride] was run?
Its value is 7.46.

For `COc1cccc2c1CC[C@H]1CN(CCn3c(=O)[nH]c4c(sc5nc(C)cnc54)c3=O)C[C@@H]21` [Example 92, hydrochloride], which “pA2 Dog Prostate [α-1A]” value is on record?
The value was 9.1.

With `COCCn1c(=O)n(CCN2C[C@@H]3CCc4c(OC)cccc4[C@@H]3C2)c(=O)c2sc3cccnc3c21` [Example 105, hydrochloride] as the molecule, how does the “pA2 Dog Prostate [α-1A]” value read?
The value was 8.58.

For `COc1cccc2c1CC[C@H]1CN(CCn3c(=O)[nH]c4c(sc5ccc(C(=O)N(C)C)cc54)c3=O)C[C@@H]21` [Example 45, hydrochloride], which “pA2 Dog Prostate [α-1A]” value is on record?
The value was 9.48.

For `COc1cccc2c1CC[C@H]1CN(CCn3c(=O)[nH]c4c(sc5ncncc54)c3=O)C[C@@H]21` [Example 40, 3-[2-(cis-(3aR,9bR)-6-Methoxy-2,3,3a,4,5,9b-hexahydro-[1H]-benz[e]isoindol-1-yl)ethyl]-thieno[2,3-d:4,5]dipyrimidine-2,4(1H,3H)-dione], which “pA2 Dog Prostate [α-1A]” value is on record?
Its value is 9.72.

With `COc1cccc2c1[C@@H]1CN(CCCCn3c(=O)[nH]c4c(sc5cccnc54)c3=O)C[C@@H]1CC2` [Example 79, dihydrochloride] as the molecule, how does the “pA2 Dog Prostate [α-1A]” value read?
Its value is 8.77.

`COc1cccc2c1[C@@H]1CN(CCCCn3c(=O)[nH]c4c(sc5ccccc54)c3=O)C[C@@H]1CC2` (relative stereo) [Example 15, 3-[4-(cis-9-Methoxy-2,3,3a,4,5,9b-hexahydro-1H]-benz[e]isoindol-1-yl)butyl]-[1]benzothieno[3,2-d]pyrimidine-2,4(1H,3H)-dione hydrochloride] was tested. Which “pA2 Dog Prostate [α-1A]” value did it give?
Its value is 7.34.

For `COc1cccc2c1CC[C@H]1CN(CCn3c(=O)[nH]c4c(sc5nc(-c6ccccc6)cnc54)c3=O)C[C@@H]21` [Example 91, hydrochloride], which “pA2 Dog Prostate [α-1A]” value is on record?
Its value is 6.66.

For `COc1cccc2c1CC[C@H]1CN(CCn3c(=O)[nH]c4c(sc5c(Cl)ccnc54)c3=O)C[C@@H]21` [Example 63, 3-[2-((3aR,9bR)-cis-6-Methoxy-2,3,3a,4,5,9b-hexahydro-[1H]-benz[e]isoindol-1-yl)ethyl]-6-chloro-pyrido[2',3':4,5]thieno[3,2-d]pyrimidine-2,4(1H,3H)-dione dihydrochloride], which “pA2 Dog Prostate [α-1A]” value is on record?
The value was 8.6.

How did the “pA2 Dog Prostate [α-1A]” value turn out when `COc1cccc2c1CC[C@H]1CN(CCn3c(=O)[nH]c4cc5ccccc5cc4c3=O)C[C@@H]21` (relative stereo) [Example 21, 3-[2-(cis-6-Methoxy-2,3,3a,4,5,9b-hexahydro-[1H]-benz[e]isoindol-1-yl)ethyl]-benzo[g]quinazoline-2,4(1H,3H):dione hydrochloride] was run?
Its value is 7.43.

With `COc1cccc2c1CC[C@H]1CN(CCn3c(=O)c4sc5ccccc5c4n(C)c3=O)C[C@@H]21` [Example 33, hydrochloride] as the molecule, how does the “pA2 Dog Prostate [α-1A]” value read?
The value was 6.56.

`COc1cccc2c1CC[C@H]1CN(CCn3c(=O)[nH]c4c(sc5ncc(-c6ccccc6)nc54)c3=O)C[C@@H]21` [Example 99, hydrochloride] was tested. Which “pA2 Dog Prostate [α-1A]” value did it give?
The value was 7.92.

For `COC(=O)c1ccc2sc3c(=O)n(CCN4C[C@@H]5CCc6c(OC)cccc6[C@@H]5C4)c(=O)[nH]c3c2c1` [Example 44, 3-[2-((3aR,9bR)-cis-6-Methoxy-2,3,3a,4,5,9b-hexahydro-[1H]-benz[e]isoindol-1-yl)ethyl]-[1]-8-carbomethoxy-benzothieno[3,2-d]pyrimidine-2,4(1H,3H)-dione hydrochloride], which “pA2 Dog Prostate [α-1A]” value is on record?
Its value is 8.09.

With `COc1cccc2c1CC[C@H]1CN(CCn3c(=O)[nH]c4c(sc5cccnc54)c3=O)C[C@@H]21` [Example 37, dihydrochloride] as the molecule, how does the “pA2 Dog Prostate [α-1A]” value read?
Its value is 9.15.

same assay, conditions: Table 2b; vs phenylephrine; Schild plot; hydrochloride

Which “pA2 Dog Prostate [α-1A]” value does the source give for `COc1cccc2c1CC[C@H]1CN(CCn3c(=O)[nH]c4c(sc5cccc(C)c54)c3=O)C[C@@H]21` [Example 35, 3-2-((3aR,9bR)-cis-6-Methoxy-2,3,3a,4,5,9b-hexahydro-[1H]-benz[e]isoindol-1-yl)ethyl]-9-methyl[1]benzothieno[3,2-d]pyrimidine-2,4(1H,3H)-dione hydrochloride] here?
The value was 8.74.
